Results as given in patent publication US6358886B1, “6-Substituted 2,4-diamino-1,3,5-triazine derivatives having at least two asymmetrically substituted carbon atoms, the production thereof, and their use as herbicides” (Bayer Aktienegesellschaft, priority 1998, dated 2002).

Key:
Assay type in all cases: in vivo
[1] = system: Alopecurus; assay: Pre-emergence test/greenhouse; settings: after three weeks
Experimental: (§1) Solvent: 5 parts by weight of acetone
(§2) Emulsifier: 1 part by weight of alkylaryl polyglycol ether
(§3) To produce a suitable preparation of active compound, 1 part by weight of active compound is mixed with the stated amount of solvent, the stated amount of emulsifier is added and the concentrate is diluted with water to the desired concentration.
(§4) Seeds of the test plants are sown in normal soil. After about 24 hours, the soil is sprayed with the preparation of active compound such that the particular amounts of active compound desired are applied per unit area. The concentration of the spray liquor is chosen so that the particular amounts of active compound desired are applied in 1000 l of water/ha.
(§5) After three weeks, the degree of damage to the plants is rated in % damage in comparison to the development of the untreated control.
(§6) 0%=no effect (like untreated control)

[2] = system: Amaranthus; assay: Pre-emergence test/greenhouse; settings: after three weeks
Experimental: as §1, §2, §3, §4, §5, §6

[3] = system: Abutilon; assay: Pre-emergence test/greenhouse; settings: after three weeks
Experimental: as §1, §2, §3, §4, §5, §6

[4] = system: Maize; assay: Pre-emergence test/greenhouse; settings: after three weeks, crop plant
Experimental: as §1, §2, §3, §4, §5, §6

[5] = system: Setaria; assay: Pre-emergence test/greenhouse; settings: after three weeks
Experimental: as §1, §2, §3, §4, §5, §6

[6] = system: Galium; assay: Pre-emergence test/greenhouse; settings: after three weeks
Experimental: as §1, §2, §3, §4, §5, §6

[7] = system: Sinapis; assay: Pre-emergence test/greenhouse; settings: after three weeks
Experimental: as §1, §2, §3, §4, §5, §6

[8] = system: crop plants, such as, for example, sunflowers; assay: Pre-emergence test, crop tolerance; settings: result in words
Experimental: as §1, §2, §3, §4, §5, §6

[9] = system: weeds; assay: Post-emergence test; settings: result in words
Experimental: as §1, §2, §3
(§7) Test plants which have a height of 5-15 cm are sprayed with the preparation of active compound such that the particular amounts of active compound desired are applied per unit area. The concentration of the spray liquor is chosen so that the particular amounts of active compound desired are applied in 1000 l of water/ha.
as §5, §6

[10] = system: Amaranthus; assay: Post-emergence test/greenhouse; settings: after three weeks
Experimental: as §1, §2, §3, §7, §5, §6

[11] = system: Xanthium; assay: Post-emergence test/greenhouse; settings: after three weeks
Experimental: as §1, §2, §3, §7, §5, §6

[12] = system: Abutilon; assay: Post-emergence test/greenhouse; settings: after three weeks
Experimental: as §1, §2, §3, §7, §5, §6

[13] = system: Setaria; assay: Post-emergence test/greenhouse
Experimental: as §1, §2, §3, §7, §5, §6

[14] = system: weeds; assay: Pre-emergence test; settings: result in words
Experimental: as §1, §2, §3, §4, §5, §6

[15] = system: Sinapis; assay: Post-emergence test/greenhouse; settings: Table A-3, 1000 g of ai./ha, after three weeks
Experimental: as §1, §2, §3, §7, §5, §6

[16] = Table A-3, 1000 g of ai./ha, after three weeks

CCC(COc1cc(C)cc(C)c1)Nc1nc(N)nc([C@@H](C)O)n1 (mixture of isomers) [Example 2]
degree of damage, Alopecurus ([1]; Table B-2, 1000 g of ai./ha): 100%
degree of damage, Amaranthus ([2]; Table B-2, 1000 g of ai./ha): 80%
degree of damage, Abutilon ([3]; Table B-2, 1000 g of ai./ha): 100%
degree of damage, Maize ([4]; Table B-2, 1000 g of ai./ha): 20%
degree of damage, Setaria ([5]; Table B-2, 1000 g of ai./ha): 100%

CCC(COc1cc(C)cc(C)c1)Nc1nc(N)nc([C@H](C)O)n1 (mixture of isomers) [Example 3]
degree of damage, Galium ([6]; Table B-3, 2000 g of ai./ha): 100%
degree of damage, Amaranthus ([2]; Table B-3, 2000 g of ai./ha): 100%
degree of damage, Sinapis ([7]; Table B-3, 2000 g of ai./ha): 100%
degree of damage, Abutilon ([3]; Table B-3, 2000 g of ai./ha): 100%
degree of damage, Setaria ([5]; Table B-3, 2000 g of ai./ha): 100%

CCC(COc1cc(C)cc(C)c1)Nc1nc(N)nc([C@H](C)Cl)n1 (mixture of isomers) [Example 4]
degree of damage, Galium ([6]; Table B-3, 2000 g of ai./ha): 100%
degree of damage, Alopecurus ([1]; Table B-3, 2000 g of ai./ha): 100%
degree of damage, Amaranthus ([2]; Table B-3, 2000 g of ai./ha): 95%
degree of damage, Sinapis ([7]; Table B-3, 2000 g of ai./ha): 100%
degree of damage, Abutilon ([3]; Table B-3, 2000 g of ai./ha): 100%
degree of damage, Setaria ([5]; Table B-3, 2000 g of ai./ha): 100%

CCC(COc1cc(C)cc(C)c1)Nc1nc(N)nc([C@@H](C)Cl)n1 (mixture of isomers) [Example 5]
degree of damage, Galium ([6]; Table B-1, 1000 g of ai./ha): 100%
degree of damage, Abutilon ([3]; Table B-1, 1000 g of ai./ha): 100%
degree of damage, Maize ([4]; Table B-1, 1000 g of ai./ha): 20%
degree of damage, Setaria ([5]; Table B-1, 1000 g of ai./ha): 100%

CCC(COc1ccccc1)Nc1nc(N)nc([C@H](C)Cl)n1 (mixture of isomers) [Example 7]
degree of damage, Galium ([6]; Table B-3, 1000 g of ai./ha): 100%
degree of damage, Alopecurus ([1]; Table B-3, 1000 g of ai./ha): 95%
degree of damage, Amaranthus ([2]; Table B-3, 1000 g of ai./ha): 100%
degree of damage, Sinapis ([7]; Table B-3, 1000 g of ai./ha): 100%
degree of damage, Abutilon ([3]; Table B-3, 1000 g of ai./ha): 100%
degree of damage, Setaria ([5]; Table B-3, 1000 g of ai./ha): 95%

CCC(=O)Nc1nc(NC(CC)COc2ccccc2)nc([C@H](C)Cl)n1 (mixture of isomers) [Example 9]
degree of damage, Alopecurus ([1]; Table B-2, 1000 g of ai./ha): 95%
degree of damage, Amaranthus ([2]; Table B-2, 1000 g of ai./ha): 100%
degree of damage, Sinapis ([7]; Table B-2, 1000 g of ai./ha): 100%
degree of damage, Abutilon ([3]; Table B-2, 1000 g of ai./ha): 95%
degree of damage, Maize ([4]; Table B-2, 1000 g of ai./ha): 20%

CCC(CCc1ccsc1)Nc1nc(N)nc([C@H](C)Cl)n1 (mixture of isomers) [Example 15]
degree of damage, Galium ([6]; Table B-3, 1000 g of ai./ha): 100%
degree of damage, Alopecurus ([1]; Table B-3, 1000 g of ai./ha): 100%
degree of damage, Amaranthus ([2]; Table B-3, 1000 g of ai./ha): 100%
degree of damage, Sinapis ([7]; Table B-3, 1000 g of ai./ha): 100%
degree of damage, Abutilon ([3]; Table B-3, 1000 g of ai./ha): 100%
degree of damage, Setaria ([5]; Table B-3, 1000 g of ai./ha): 100%

C[C@H](Nc1nc(N)nc([C@@H](C)O)n1)c1ccccc1 [Example 1, 2-amino-4-(R)-(1-hydroxyethyl)-6-(S)-(1-phenyl-ethylamino)-1,3,5-triazine]
tolerance by crop plants [8]: tolerated well
activity against weeds [9]: strong activity
degree of damage, Amaranthus ([10]; Table A-1, 1000 g of ai./ha): 100%
degree of damage, Xanthium ([11]; Table A-1, 1000 g of ai./ha): 95%
degree of damage, Abutilon ([12]; Table A-1, 1000 g of ai./ha): 80%
degree of damage, Setaria ([13]; Table A-1, 1000 g of ai./ha, rated after three weeks, 0%=no effect, 100%=total destruction): 90%
activity against weeds [14]: strong activity

C[C@H](Nc1nc(N)nc([C@@H](C)Cl)n1)c1ccccc1 [Example 18]
activity against weeds [9]: strong activity
degree of damage, Amaranthus ([10]; Table A-3, 1000 g of ai./ha): 100%
degree of damage, Xanthium ([11]; Table A-3, 1000 g of ai./ha): 100%
degree of damage, Sinapis [15]: 100%
degree of damage, Abutilon ([12]; Table A-3, 1000 g of ai./ha): 100%
degree of damage, Setaria [13, 16]: 100%

CC[C@H](Nc1nc(N)nc([C@H](C)Cl)n1)c1ccccc1 [Example 22]
activity against weeds [9]: strong activity
degree of damage, Amaranthus ([10]; Table A-3, 1000 g of ai./ha): 100%
degree of damage, Xanthium ([11]; Table A-3, 1000 g of ai./ha): 100%
degree of damage, Sinapis [15]: 100%
degree of damage, Abutilon ([12]; Table A-3, 1000 g of ai./ha): 95%
degree of damage, Setaria [13, 16]: 95%

CC[C@H](Nc1nc(N)nc([C@@H](C)Cl)n1)c1ccccc1 [Example 23]
activity against weeds [9]: strong activity
degree of damage, Amaranthus ([10]; Table A-3, 1000 g of ai./ha): 100%
degree of damage, Xanthium ([11]; Table A-3, 1000 g of ai./ha): 100%
degree of damage, Sinapis [15]: 100%
degree of damage, Abutilon ([12]; Table A-3, 1000 g of ai./ha): 95%
degree of damage, Setaria [13, 16]: 80%
